Laboratory results: ChEMBL document CHEMBL4665641, “Lead optimization and efficacy evaluation of quinazoline-based BET family inhibitors for potential treatment of cancer and inflammatory diseases” (Bioorg Med Chem Lett, 2019)

Assays:
[1] = Plasma clearance in CD-1 mouse at 2 mg/kg, iv; format: ADME, organism-based
[2] = Oral bioavailability in CD-1 mouse at 10 mg/kg; format: ADME, organism-based; conditions: CD-1, mouse, in vivo
[3] = target: T1, Bromodomain-containing protein 4 (Homo sapiens, UniProt O60885); assay: Competitive binding affinity to human partial length BRD4 (BD1,2) (N44 to E460 residues) expressed in bacterial expression system by BROMOscan assay
MV4-11 = assay: Cytotoxicity against human MV4-11 cells assessed as inhibition of cell viability; format: functional, cell-based
[4] = Half life in CD-1 mouse at 2 mg/kg, iv; format: ADME, organism-based; conditions: in vivo
[5] = Half life in CD-1 mouse at 10 mg/kg, po; format: ADME, organism-based; conditions: in vivo
[6] = Cmax in CD-1 mouse at 2 mg/kg, iv measured after 5 mins; format: ADME, organism-based; design: route intravenous, dose 2 mg/kg; conditions: in vivo
[7] = Cmax in CD-1 mouse at 10 mg/kg, po; format: ADME, organism-based; design: route oral, dose 10 mg/kg; conditions: CD-1, mouse, in vivo, read-out: Cmax
[8] = AUC(0 to infinity) in CD-1 mouse at 2 mg/kg, iv; format: ADME, organism-based; design: time infinity, route intravenous, dose 2 mg/kg; conditions: CD-1, mouse, in vivo
[9] = AUC(0 to infinity) in CD-1 mouse at 10 mg/kg, po; format: ADME, organism-based; design: route oral, time infinity, dose 10 mg/kg; conditions: in vivo
[10] = Volume of distribution at steady state in CD-1 mouse at 2 mg/kg, iv; format: ADME, organism-based; conditions: in vivo, read-out: Vdss
Kasumi 1 [11] = assay: Antitumor activity against human Kasumi-1 cells xenografted in CB17 SCID mouse assessed as tumor volume at 10 mg/kg, po QD for 29 days (reference value: 1734 +/- 220 mm3); format: functional; conditions: time 29 day
Kasumi 1 [12] = assay: Antitumor activity against human Kasumi-1 cells xenografted in CB17 SCID mouse assessed as tumor weight at 10 mg/kg, po QD for 29 days (reference value: 2.1+/- 0.3 g); format: functional; conditions: time 29 day
Kasumi 1 [13] = assay: Antitumor activity against human Kasumi-1 cells xenografted in CB17 SCID mouse assessed as inhibition of tumor growth at 10 mg/kg, po QD for 29 days; format: functional; conditions: Kasumi 1, po, 696 h, time 29 day, read-out: TGI
[14] = target: T1, Bromodomain-containing protein 4; assay: Inhibition of human full-length recombinant N-terminal His-tagged BRD4 (2 to 1362 residues) expressed in Sf9 cells using histone H4 peptide containing acetylated lysine residues as substrate preincubated with enzyme for 30 mins followed by incubation with substrate for 30 mins by Alphascreen assay […]
Mus musculus [15] = assay: Antiarthritic activity in collagen/complete freund's adjuvant-induced arthritis DBA/1 mouse model assessed as paw thickness at 1 mg/kg, po administered via gavage starting from day 21 to day 41 post collagen/CFA challenge and measured on day 21 by caliper analysis (reference value: 2.48 millimeter); format: functional; conditions: time 21 day
[16] = Toxicity in collagen/CFA induced arthritis DBA/1 mouse model assessed as body weight loss at 1 mg/kg, po administered via gavage starting from day 21 to day 41 post collagen/CFA challenge and measured on day 0, 18, 21 followed by three times weekly up to 42 days; format: organism-based; conditions: in vivo, 504 h, time 21 day
Mus musculus [17] = assay: Antiinflammatory activity in collagen/complete freund's adjuvant-induced arthritis DBA/1 mouse model assessed as IL-1 beta level in rear right paw at 1 mg/kg, po administered via gavage starting from day 21 to day 41 post collagen/CFA challenge and measured on day 42 measured per mg protein (reference value: 3.15 pg); format: functional; conditions: time 21 day
Mus musculus [18] = assay: Antiinflammatory activity in collagen/complete freund's adjuvant-induced arthritis DBA/1 mouse model assessed as IL-2 level in rear right paw at 1 mg/kg, po administered via gavage starting from day 21 to day 41 post collagen/CFA challenge and measured on day 42 measured per mg protein (reference value: 0.2 pg); format: functional; conditions: time 21 day
Mus musculus [19] = assay: Antiinflammatory activity in collagen/complete freund's adjuvant-induced arthritis DBA/1 mouse model assessed as IL-6 level in rear right paw at 1 mg/kg, po administered via gavage starting from day 21 to day 41 post collagen/CFA challenge and measured on day 42 measured per mg protein (reference value: 180.7 pg); format: functional; conditions: time 21 day
Mus musculus [20] = assay: Antiinflammatory activity in collagen/complete freund's adjuvant-induced arthritis DBA/1 mouse model assessed as IP-10 level in rear right paw at 1 mg/kg, po administered via gavage starting from day 21 to day 41 post collagen/CFA challenge and measured on day 42 measured per mg protein (reference value: 6.23 pg); format: functional; conditions: time 21 day
Mus musculus [21] = assay: Antiinflammatory activity in collagen/complete freund's adjuvant-induced arthritis DBA/1 mouse model assessed as MCP-1 level in rear right paw at 1 mg/kg, po administered via gavage starting from day 21 to day 41 post collagen/CFA challenge and measured on day 42 measured per mg protein (reference value: 126.24 pg); format: functional; conditions: time 21 day
Mus musculus [22] = assay: Antiinflammatory activity in collagen/complete freund's adjuvant-induced arthritis DBA/1 mouse model assessed as TNF-alpha level in rear right paw at 1 mg/kg, po administered via gavage starting from day 21 to day 41 post collagen/CFA challenge and measured on day 42 measured per mg protein (reference value: 0.88 pg); format: functional; conditions: time 21 day
Mus musculus [23] = assay: Antiinflammatory activity in collagen/complete freund's adjuvant-induced arthritis DBA/1 mouse model assessed as IFN-gamma level in rear right paw at 1 mg/kg, po administered via gavage starting from day 21 to day 41 post collagen/CFA challenge and measured on day 42 measured per mg protein (reference value: 0.78 pg); format: functional; conditions: time 21 day
Mus musculus [24] = assay: Antiinflammatory activity in collagen/complete freund's adjuvant-induced arthritis DBA/1 mouse model assessed as VEGF level in rear right paw at 1 mg/kg, po administered via gavage starting from day 21 to day 41 post collagen/CFA challenge and measured on day 42 measured per mg protein (reference value: 0.98 pg); format: functional; conditions: time 21 day
[25] = Toxicity in collagen/CFA induced arthritis DBA/1 mouse model assessed as body weight at 1 mg/kg, po administered via gavage starting from day 21 to day 41 post collagen/CFA challenge and measured on day 21 relative to initial weight (reference value: 94.96%); format: organism-based; conditions: in vivo, 504 h, time 21 day
Kasumi 1 [26] = assay: Antitumor activity against human Kasumi-1 cells xenografted in CB17 SCID mouse assessed as tumor volume at 40 mg/kg, po QD for 25 days (reference value: 2189 +/- 604 mm3); format: functional; conditions: time 25 day
Kasumi 1 [27] = assay: Antitumor activity against human Kasumi-1 cells xenografted in CB17 SCID mouse assessed as tumor weight at 40 mg/kg, po QD for 25 days (reference value: 2.57 +/-0.27 g); format: functional; conditions: time 25 day
Kasumi 1 [28] = assay: Antitumor activity against human Kasumi-1 cells xenografted in CB17 SCID mouse assessed as tumor weight at 10 mg/kg, po administered for 25 days (reference value: 2.57 +/- 0.27 g); format: functional; conditions: time 25 day
Kasumi 1 [29] = assay: Antitumor activity against human Kasumi-1 cells xenografted in CB17 SCID mouse assessed as tumor volume at 10 mg/kg, po QD for 25 days (reference value: 2189 +/- 604 mm3); format: functional; conditions: time 25 day
[30] = Drug uptake in tumor tissue of CB17 SCID mouse xenografted with human Kasumi-1 cells at 40 mg/kg, po QD for 25 days and measured after 24 hrs post last dose; format: ADME, organism-based, Neoplasm; conditions: time 25 day, read-out: Drug uptake
[31] = Toxicity in CB17 SCID mouse xenografted with human Kasumi-1 cells assessed body weight loss at 40 mg/kg, po QD for 25 days; format: organism-based; conditions: in vivo, 600 h, time 25 day
Kasumi 1 [32] = assay: Antitumor activity against human Kasumi-1 cells xenografted in CB17 SCID mouse assessed as inhibition of tumor growth at 10 mg/kg, po QD for 25 days; format: functional; conditions: Kasumi 1, po, 600 h, time 25 day, read-out: TGI
Kasumi 1 [33] = assay: Antitumor activity against human Kasumi-1 cells xenografted in CB17 SCID mouse assessed as inhibition of tumor growth at 40 mg/kg, po QD for 25 days; format: functional; conditions: Kasumi 1, po, 600 h, time 25 day, read-out: TGI
[34] = Stability in mouse liver microsomes assessed as half life; format: ADME, Microsome
[35] = Stability in rat liver microsomes assessed as half life; format: ADME, Microsome
[36] = Stability in human liver microsomes assessed as half life; format: ADME, Microsome
[37] = Toxicity in CB17 SCID mouse xenografted with human Kasumi-1 cells assessed body weight loss at 10 to 40 mg/kg, po QD for 25 days; format: organism-based; conditions: in vivo, 600 h, dose 10-40 mg/kg, time 25 day
[38] = Drug uptake in tumor tissue of CB17 SCID mouse xenografted with human Kasumi-1 cells at 10 mg/kg, po QD for 25 days and measured after 24 hrs post last dose; format: ADME, organism-based, Neoplasm; conditions: time 25 day, read-out: Drug uptake
Kasumi 1 [39] = assay: Antiproliferative activity against human Kasumi-1 cells after 72 hrs by Celltiter-Glo assay; format: functional, cell-based; conditions: Kasumi 1, 72 h

## Cc1cc(-c2ccc3nc(-c4cnn(CC(C)(C)O)c4)nc(N4CCOC[C@@H]4c4ccccc4)c3c2)cn(C)c1=O
[1]
  clearance: 3.8 mL/min/kg
[2]
  bioavailability: 85%
[3]
  Kd: 23 nM
MV4-11
  IC50: 240 nM
[4]
  half-life: 126 min
[5]
  half-life: 162 min
[6]; CD-1, mouse, read-out: Cmax
  Cmax: 2450 ng/mL
[7]
  Cmax: 2870 ng/mL
[8]
  AUC(0-inf): 9330 ng·h/mL
[9]; CD-1, mouse
  AUC(0-inf): 39800 ng·h/mL
[10]
  Vd: 0.89 L/kg
Kasumi 1 [11]
  Activity: 588 mm3
Kasumi 1 [12]
  Activity: 0.73 g
Kasumi 1 [13]
  inhibition in vivo at 10 mg/kg: 65.1%
[14]
  IC50: 11 nM

## C[C@@H]1C[C@H]2[C@@H]3CCC4=CC(=O)C=C[C@]4(C)[C@@]3(F)[C@@H](O)C[C@]2(C)[C@@]1(O)C(=O)CO [DEXAMETHASONE]
Mus musculus [15]
  Activity: 1.53 mm
[16]
  Activity: Toxic
Mus musculus [17]
  Activity: 2.32 pg
Mus musculus [18]
  Activity: 0.63 pg
Mus musculus [19]
  Activity: 2.17 pg
Mus musculus [20]
  Activity: 0.86 pg
Mus musculus [21]
  Activity: 1.99 pg
Mus musculus [22]
  Activity: 0.39 pg
Mus musculus [23]
  Activity: 1.5 pg
Mus musculus [24]
  Activity: 0.85 pg
[25]
  Activity: 92.74%

## CCNC(=O)C[C@@H]1N=C(c2ccc(Cl)cc2)c2cc(OC)ccc2-n2c(C)nnc21 [MOLIBRESIB]
Kasumi 1 [26]
  Activity: 79 mm3
Kasumi 1 [27]
  Activity: 0.07 g
Kasumi 1 [28]
  Activity: 0.52 g
Kasumi 1 [29]
  Activity: 586 mm3
[30]
  concentration at 600 h: 16 ng/g
[31]
  Activity: Toxic
Kasumi 1 [11]
  Activity: 330 mm3
Kasumi 1 [12]
  Activity: 0.3 g

## Cc1noc(C)c1-c1ccc2nc(-c3cnn(CC(C)(C)O)c3)nc(N3CCOC[C@@H]3C3CC3)c2c1
Kasumi 1 [32]
  inhibition in vivo at 10 mg/kg: 49.1%
Kasumi 1 [26]
  Activity: 51 mm3
Kasumi 1 [27]
  Activity: 0.03 g
Kasumi 1 [33]
  inhibition in vivo at 40 mg/kg: 98.8%
Kasumi 1 [28]
  Activity: 1.31 g
[1]
  clearance: 10.1 mL/min/kg
[3]
  Kd: 230 nM
MV4-11
  IC50: 1660 nM
[4]
  half-life: 90 min
[5]
  half-life: 108 min
[6]; mouse, 5 min
  Cmax: 1940 ng/mL
[7]
  Cmax: 2040 ng/mL
[8]
  AUC(0-inf): 3370 ng·h/mL
[9]; mouse
  AUC: 15013 ng·h/mL
[10]
  Vd: 1.28 L/kg
[34]
  t1/2: 102 min
[35]
  half-life: 33 min
[36]
  half-life: 106 min
Kasumi 1 [29]
  Activity: 1001 mm3
[37]
  Activity: Non-Toxic
[38]
  concentration at 600 h: 303 ng/g
[30]
  concentration at 600 h: 4210 ng/g
Kasumi 1 [39]
  IC50: 520 nM
[14]
  IC50: 76 nM
